Reference: patent US20140073651A1, “BENZAMIDE DERIVATIVES AS P2X7 RECEPTOR ANTAGONISTS” (Actelion Pharmaceuticals Ltd., priority 2011, published 2014)

The molecules below were run against T1, human recombinant P2X7 receptor (Homo sapiens, UniProt Q99572) (assay: YO-PRO assay (YO-PRO-1 uptake) in HEK cells stably expressing P2X7). Details: HEK-293 cells expressing human recombinant P2X7 receptor; ATP 250 μM, 90 minutes; YO-PRO-1 fluorescence (FLIPR tetra); read-out: IC50 (antagonistic activity with respect to the P2X7 receptor).
T1 construct: expressed in transfected cells
T1 sequence (Q99572 1-595): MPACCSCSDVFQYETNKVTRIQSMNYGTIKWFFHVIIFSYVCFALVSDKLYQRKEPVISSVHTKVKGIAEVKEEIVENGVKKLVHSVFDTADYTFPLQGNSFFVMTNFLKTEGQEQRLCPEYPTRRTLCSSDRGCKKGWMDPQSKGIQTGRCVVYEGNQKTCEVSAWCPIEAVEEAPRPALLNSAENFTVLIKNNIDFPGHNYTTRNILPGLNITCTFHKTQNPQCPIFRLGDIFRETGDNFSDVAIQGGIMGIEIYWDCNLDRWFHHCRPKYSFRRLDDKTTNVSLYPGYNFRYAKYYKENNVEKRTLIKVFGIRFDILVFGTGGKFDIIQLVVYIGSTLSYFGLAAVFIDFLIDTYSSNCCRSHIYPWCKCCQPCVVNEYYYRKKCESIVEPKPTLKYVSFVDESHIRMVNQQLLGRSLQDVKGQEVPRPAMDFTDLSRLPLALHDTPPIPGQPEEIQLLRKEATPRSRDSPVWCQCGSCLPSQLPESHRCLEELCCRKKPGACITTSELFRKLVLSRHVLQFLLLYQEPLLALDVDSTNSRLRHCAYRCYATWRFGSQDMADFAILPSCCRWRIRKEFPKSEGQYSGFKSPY
Type: cell-based
Description: Cell line generation was performed in general according to established molecular cloning protocols. Specifically, RNA was extracted from human whole blood using the Qiagen RNeasy kit (Qiagen, CH) according to the manufacturer's instructions. Subsequently cDNA was made (Superscript II, Invitrogen AG, CH) and the human P2X7 gene (genbank ref. BC011913) was amplified with the following primers: [NT] and [NT] The amplified sequence was subsequently ligated into a pcDNA3.1 (+) NotI, NheI digested plasmid. […] Following a 24 h exposure to DNA, cells were trypsinized and re-seeded at low density in the presence of 250 μg Geneticin. Geneticin resistant cells were then selected during two consecutive rounds of cloning by serial limiting dilution with visual inspection. Individual clones were screened for P2X7 expression by applying ATP and recording the resultant uptake of YO-[…]. Specific cell clones were chosen based on RNA and protein expression. HEK cells stably expressing P2X7 were used to screen drugs using the YO-[…] assay. Cells were grown to confluency in adherent culture at 37° C. in a humidified 5% CO2 incubator (split 1/5 every 3-4 days with DMEM, 10% FCS, 1% Penicillin/Streptomycin, 250 μg/ml Geneticin). Adherent cells were detached by incubation with Trypsine (1 ml per 165 cm^2 dish) for 2 minutes, then washed off with 10 ml PBS (without Mg^2+ and Ca^2+), and resuspended in DMEM, 10% FCS, 1% Penicillin/Streptomycin, no Geneticin. 10'000 cells per well (48 hours before the assay) or 25'000 cells per well (Vi-cell XR (Beckman Coulter) (24 hours before the assay) in 50 μl full medium were seeded on 384-well black-wall, clear bottom plates, that were coated before with 10 μl per well Poly-L-Lysine, incubated for 30-60 minutes at 37° C. and washed once with PBS. Medium was removed from cells and 50 μl of assay buffer containing 0.5 μM YO-[…] was added into the wells. Solutions of antagonist compounds were prepared by serial dilutions of a 10 mM DMSO solution of the antagonist into PBS using a BioMek (Beckman Coulter). Each concentration was performed in duplicate. […] During this time period, four time points were taken. Each time point comprised the average of several measurements made within a few seconds. […] The FLIPR tetra was equipped with Molecular Devices Screen Works system control software to define and run experimental protocols. […] For IC50 measurements the maximum intensity is plotted against the concentration of compound to determine IC50 values.

IC50	SMILES
265 nM	O=C(NCC1(O)CCCCC1)c1cc([S+]([O-])c2ccccn2)ccc1Cl (racemic) [Example 133, rac-2-Chloro-N-(1-hydroxy-cyclohexylmethyl)-5-(pyridine-2-sulfinyl)-benzamide]
640 nM	O=C(NCC1(O)CCCCC1)c1cc([S+]([O-])c2ccnc(Cl)n2)ccc1Cl (racemic) [Example 136, rac-2-Chloro-5-(2-chloro-pyrimidine-4-sulfinyl)-N-(1-hydroxy-cyclohexylmethyl)-benzamide]
914 nM	COc1nccc([S+]([O-])c2ccc(Cl)c(C(=O)NCC3(O)CCCCC3)c2)n1 (racemic) [Example 140, rac-2-Chloro-N-(1-hydroxy-cyclohexylmethyl)-5-(2-methoxy-pyrimidine-4-sulfinyl)-benzamide]
25 nM	O=C(NCC1(O)CCCCC1)c1cc(C(F)c2cc[nH]c(=O)n2)ccc1Cl (racemic) [Example 152, rac-2-Chloro-5-[fluoro-(2-oxo-1,2-dihydro-pyrimidin-4-yl)-methyl]-N-(1-hydroxy-cyclohexylmethyl)-benzamide]
14 nM	CC(O)(c1ccc(Cl)c(C(=O)NCC2(O)CCCCC2)c1)c1cc[nH]c(=O)n1 (racemic) [Example 156, rac-2-Chloro-N-(1-hydroxy-cyclohexylmethyl)-5-[1-hydroxy-1-(2-oxo-1,2-dihydro-pyrimidin-4-yl)-ethyl]-benzamide]
346 nM	COc1nccc(C(C)(O)c2ccc(Cl)c(C(=O)NCC3(O)CCCCC3)c2)n1 (racemic) [Example 159, rac-2-Chloro-N-(1-hydroxy-cyclohexylmethyl)-5-[1-hydroxy-1-(2-methoxy-pyrimidin-4-yl)-ethyl]-benzamide]
9 nM	CC(O)(c1ccc(Cl)c(C(=O)NCC2(O)CCCCC2)c1)c1cc[nH]c(=O)n1 (single isomer, unassigned) [Example 157, 2-Chloro-N-(1-hydroxy-cyclohexylmethyl)-5-[1-hydroxy-1-(2-oxo-1,2-dihydro-pyrimidin-4-yl)-ethyl]-benzamide]
66 nM	CC(O)(c1ccc(Cl)c(C(=O)NCC2(O)CCCCC2)c1)c1cc[nH]c(=O)n1 (single isomer, unassigned) [Example 158]
106 nM	CN(c1ccc(Cl)c(C(=O)NCC2(O)CCCCC2)c1)c1ccnc(=O)n1C [Example 18, 2-Chloro-N-(1-hydroxy-cyclohexylmethyl)-5-[methyl-(3-methyl-2-oxo-2,3-dihydro-pyrimidin-4-yl)-amino]-benzamide]
420 nM	CN(c1ccc(Cl)c(C(=O)NCC2(O)CCCCC2)c1)c1ccn(C)c(=O)n1 [Example 19, 2-Chloro-N-(1-hydroxy-cyclohexylmethyl)-5-[methyl-(1-methyl-2-oxo-1,2-dihydro-pyrimidin-4-yl)-amino]-benzamide]
228 nM	CCN(c1ccc(Cl)c(C(=O)NCC2(O)CCCCC2)c1)c1ccnc(Cl)n1 [Example 20, 2-Chloro-5-[(2-chloro-pyrimidin-4-yl)-ethyl-amino]-N-(1-hydroxy-cyclohexylmethyl)-benzamide]
17 nM	CCN(c1ccc(Cl)c(C(=O)NCC2(O)CCCCC2)c1)c1cc[nH]c(=O)n1 [Example 21, 2-Chloro-5-[ethyl-(2-oxo-1,2-dihydro-pyrimidin-4-yl)-amino]-N-(1-hydroxy-cyclohexylmethyl)-benzamide]

Continued, molecule first:

SMILES	IC50
O=C(NCC1(O)CCCCC1)c1cc(Nc2ccccc2)ccc1Cl [Example 1, 2-Chloro-N-(1-hydroxy-cyclohexylmethyl)-5-phenylamino-benzamide]	111 nM
CN(c1ccccc1)c1ccc(Cl)c(C(=O)NCC2(O)CCCCC2)c1 [Example 2, 2-Chloro-N-(1-hydroxy-cyclohexylmethyl)-5-(methyl-phenyl-amino)-benzamide]	315 nM
COCCN(c1ccccc1)c1ccc(Cl)c(C(=O)NCC2(O)CCCCC2)c1 [Example 3, 2-Chloro-N-(1-hydroxy-cyclohexylmethyl)-5-[(2-methoxy-ethyl)-phenyl-amino]-benzamide]	538 nM
O=C(NCC1(O)CCCCC1)c1cc(Nc2ccccc2F)ccc1Cl [Example 4, 2-Chloro-5-(2-fluoro-phenylamino)-N-(1-hydroxy-cyclohexylmethyl)-benzamide]	103 nM
CN(c1ccc(Cl)c(C(=O)NCC2(O)CCCCC2)c1)c1ccccc1F [Example 5, 2-Chloro-5-[(2-fluoro-phenyl)-methyl-amino]-N-(1-hydroxy-cyclohexylmethyl)-benzamide]	531 nM
O=C(NCC1(O)CCCCC1)c1cc(Nc2ccc(F)cc2F)ccc1Cl [Example 6, 2-Chloro-5-(2,4-difluoro-phenylamino)-N-(1-hydroxy-cyclohexylmethyl)-benzamide]	154 nM
CN(c1ccc(Cl)c(C(=O)NCC2(O)CCCCC2)c1)c1ccc(F)cc1F [Example 7, 2-Chloro-5-[(2,4-difluoro-phenyl)-methyl-amino]-N-(1-hydroxy-cyclohexylmethyl)-benzamide]	876 nM
O=C(NCC1(O)CCCCC1)c1cc(Nc2ccncn2)ccc1Cl [Example 8, 2-Chloro-N-(1-hydroxy-cyclohexylmethyl)-5-(pyrimidin-4-ylamino)-benzamide]	459 nM
CN(c1ccc(Cl)c(C(=O)NCC2(O)CCCCC2)c1)c1ccncn1 [Example 9, 2-Chloro-N-(1-hydroxy-cyclohexylmethyl)-5-(methyl-pyrimidin-4-yl-amino)-benzamide]	481 nM
O=C(NCC1(O)CCCCC1)c1cc(Nc2ccnc(Cl)n2)ccc1Cl [Example 10, 2-Chloro-5-(2-chloro-pyrimidin-4-ylamino)-N-(1-hydroxy-cyclohexylmethyl)-benzamide]	890 nM
CN(c1ccc(Cl)c(C(=O)NCC2(O)CCCCC2)c1)c1ccnc(Cl)n1 [Example 11, 2-Chloro-5-[(2-chloro-pyrimidin-4-yl)-methyl-amino]-N-(1-hydroxy-cyclohexylmethyl)-benzamide]	184 nM
COc1nccc(Nc2ccc(Cl)c(C(=O)NCC3(O)CCCCC3)c2)n1 [Example 12, 2-Chloro-N-(1-hydroxy-cyclohexylmethyl)-5-(2-methoxy-pyrimidin-4-ylamino)-benzamide]	733 nM
COc1nccc(N(C)c2ccc(Cl)c(C(=O)NCC3(O)CCCCC3)c2)n1 [Example 13, 2-Chloro-N-(1-hydroxy-cyclohexylmethyl)-5-[(2-methoxy-pyrimidin-4-yl)-methyl-amino]-benzamide]	200 nM
CNc1nccc(N(C)c2ccc(Cl)c(C(=O)NCC3(O)CCCCC3)c2)n1 [Example 14, 2-Chloro-N-(1-hydroxy-cyclohexylmethyl)-5-[methyl-(2-methylamino-pyrimidin-4-yl)-amino]-benzamide]	127 nM
CN(C)c1nccc(N(C)c2ccc(Cl)c(C(=O)NCC3(O)CCCCC3)c2)n1 [Example 15, 2-Chloro-5-[(2-dimethylamino-pyrimidin-4-yl)-methyl-amino]-N-(1-hydroxy-cyclohexylmethyl)-benzamide]	177 nM
O=C(NCC1(O)CCCCC1)c1cc(Nc2ccnc(O)n2)ccc1Cl [Example 16, 2-Chloro-N-(1-hydroxy-cyclohexylmethyl)-5-(2-hydroxypyrimidin-4-ylamino)-benzamide]	73 nM
CN(c1ccc(Cl)c(C(=O)NCC2(O)CCCCC2)c1)c1cc[nH]c(=O)n1 [Example 17, 2-Chloro-N-(1-hydroxy-cyclohexylmethyl)-5-[methyl-(2-oxo-1,2-dihydro-pyrimidin-4-yl)-amino]-benzamide]	35 nM
